{
  "source": "patent US20250092395A1",
  "about": "“A GLUN2D INHIBITOR FOR USE IN THE TREATMENT OR RELAPSE PREVENTION OF A DEPRESSIVE EPISODE” (priority 2022, published 2025)",
  "key": {"[1]": {"test_system": "NMDAR currents in somatostatin positive Interneurons (SOM)", "assay": "NMDAR currents in voltage-clamp recordings, SOM interneurons", "conditions": "+40 mV, CNQX, bath application 10 μM"}, "[2]": {"test_system": "CA3-CA1 synapse, CA1 pyramidal neurons in hippocampal brain slices", "assay": "LTP/LTD protocols and wash-in in brain slices of unstressed mice, substance in bathing solution", "assay_type": "cell-based", "conditions": "for LTP inducibility, associative LTP protocol (aLTP): bath with picrotoxin, R,S-ketamine 10 μM, S-ketamine 5 μM"}, "[3]": {"test_system": "CA3-CA1 synapse in hippocampal brain slices of CDM mice", "assay": "aLTP/aLTD inducibility in hippocampal brain slices of CDM mice after in vivo treatment", "conditions": "for stress-induced LTP blockade, reversal: NAB-14 in vivo", "experimental": "Animals were preoxygenated in a 100% oxygen atmosphere for 5 min before cervical dislocation and decapitated according to national and institutional guidelines. Transverse 300 […] were cut from hippocampus with a Vibratome (VT1200, Leica, Japan). Slices were prepared in artificial cerebrospinal fluid (ACSF) containing (in mmol/I): 125 NaCl, 25 NaHCO3, 1.25 NaH2PO4, 2.5 KCL, 1 MgCl2, 27 Glucose, 2 CaCl2) bubbled with carbogen (95% O2, 5% CO2).\nAfter 20 min resting time at 35° C., slices were kept at room temperature in aCSF and transferred into the recording chamber (volume approx. 2-3 ml) and continuously superfused with aCSF (rate approx. 5-10 ml/min-). Differential interference contrast video microscopy was used to identify location of CA1 pyramidal neurons (Zeiss Axioskop 2 FS plus, Zeiss Microscopy, Germany). Beside optical identification neurons were classified according to their characteristic firing frequency adaptation to long depolarising current pulses. Borosilicate glass tubes (2.0 mm outer diameter, 0.5 mm wall thickness; Hilgenberg, Germany) were used to pull patch pipettes. Pipettes with a resistance of 5-10 MΩ were used and series resistance of 10-50 MΩ was compensated by bridge balance. Patch pipettes were filled with an internal solution containing (in mM) for EPSP-measurements: 132K-gluconate, 20KCL, 2MgCl2, 10Hepes, 0.1EGTA, 4 Na2ATP, 0.3NaGTP. PH was adjusted to 7.2 with KOH. For current measurements: 135Csgluconate, 2CsCl, 5 QX314, 10 Hepes, 10EGTA, 2MgCl2, 2Na2ATP, 2TEACI, pH was adjusted to 7.2 with HCl. Osmolarity (280-300 mosmol/1) was controlled at the beginning of each experimental day with Osmomat (Gonotec GmbH, Germany).\nA stimulation pipette (patch pipette with 1-3 MΩ resistance when filled with internal solution) was placed superficially in the stratum radiatum of the CA1 region in approximately […] distance to the pyramidal cell layer. Subthreshold excitatory postsynaptic potentials (EPSPs, 2 7 mV) were evoked by Schaffer collateral stimulation with voltage pulses of 10-80 V (frequency of 0.1 Hz, duration of 200 μs) using a stimulus isolator (Model 2100 Isolated pulse stimulator, Carlsborg, U.S.A.). Resting membrane potentials were between −75 and −65 mV and holding potential was −70 mV. 50 ms current test pulses (leading to 5-10 mV hyperpolarization) were applied to control input and series resistances after every 10th EPSP. EPSPs were combined with APs triggered by short (3 ms) current application of 900 pA via the patch-clamp electrode. EPC-10 amplifiers (HEKA, Germany) were used and signals were filtered at 5 kHz. Patchmaster NEXT software (Version 1.2, HEKA, Germany) was used for data acquisition and experiments were performed at room temperature.\naLTP: Five EPSPs and five postsynaptic APs were paired at 100 Hz with a 5 ms delay (AP after EPSP). Five of these bursts of synchronized EPSP→AP pairs were applied at theta frequency (5 Hz), followed by an interval of 10 sec and 4 more theta blocks, resulting in 125 EPSP/AP pairings.\naLTD: 360 postsynaptic APs were pared with 360 EPSPs with a delay of 20-30 ms between each AP/EPSP pairing at a frequency of 1 Hz. 1 Hz LTD: 600 EPSPs were elicited at a frequency of 1 Hz whilst CA1 pyramidal cell membrane potential was hold at −60 mV.\nLong-term plasticity or molecular analyses were assessed as described above after the induction phase of the CDM and the specific treatment.\nEPSP measurement: For baseline measurement, the mean amplitudes of 30 consecutive EPSPs before the induction protocol were calculated. 25 min after LTP induction the mean amplitude of 30 consecutive EPSPs was calculated and compared to the baseline of the same measurement. Changes of EPSP amplitudes were expressed as percentages of the baseline measurement and analysed for each experimental group applying a two-tailed Wilcoxon test. The differences between separate experimental groups were assessed using the Mann-Whitney test, not assuming normal distribution. […]"}, "[4]": {"test_system": "SOM-dependent feedback loop, CA1 PCs", "assay": "Feedback loop-activating protocol (FLAP) in CA1 PCs", "assay_type": "cell-based, mice", "conditions": "for synaptic AP probability (conversion of EPSPs to APs) in FLAP: 10 μM washed in, 10-30 min vs baseline; for EPSP amplitude in the FLAP: wash-in of 10 μM after 10 min baseline", "experimental": "A 300 ms depolarizing current between +100 and +[…] was injected via the patch pipette into a PC to elicit a train of 5-10 APs. After an interval of 600 ms, one EPSP (5-10 mV amplitude) was elicited by Schaffer collateral stimulation. This pattern was continuously repeated at a frequency of 0.2 Hz. Substances were added by bath application after a stable 10 min baseline recording for an additional 20 min. For data analysis the maximum EPSP amplitudes from minutes 0-10 were averaged and compared to averaged maximum EPSP amplitudes from minutes 20-30.\nThe slope of the EPSP rise at 20% to 40% of its maximal amplitude, at which point an approximately linear increase in its voltage could be assumed, was fitted with Fitmaster software (HEKA, Germany). We analyzed 20 EPSPs before and 20 EPSPs 25-30 minutes after NAB-14 wash-in in the FLAP protocol for each experiment. The coefficient of variation (CV) is the standard deviation of the EPSP slopes divided by the mean. The inverse square of the CV of the postwash-in slopes was divided by the inverse square of the prewash-in slopes and plotted against the corresponding normalized slopes. Pre- and postwash-in measurements from a single experiment are connected by a line. In a standard quantal model for synaptic transmission, synaptic responses are affected either by presynaptic changes in the number of release sites and/or the probability of release or by modifications of the postsynaptic response to a single […]. A change in the ratio of CV-2 reflects a presynaptic action, whereas horizontal lines in the CV-2 plot indicate a change in postsynaptic responsiveness."}, "[5]": {"conditions": "R,S-ketamine injected shortly before each swim session in the CDM"}, "[6]": {"conditions": "unstressed mice, NAB-14 in bathing solution"}},
  "note": "“Also recorded” adds a separate entry of the source. Where a name gives a salt, the structure may show the parent alone.",
  "data": [
    {"molecule": "CNC1(c2ccccc2Cl)CCCCC1=O", "note": "(stereo not shown) [R,S-ketamine, R,S-Ketamine hydrochloride]", "values": [
      {"measurement": "amplitude of NMDAR currents in SOM interneurons", "setting": "[1]; hydrochloride", "result": "significantly stronger than in CA1 pyramidal cells; also recorded: significantly more pronounced in SOMs than in PCs"},
      {"measurement": "amplitude of NMDAR currents in SOM interneurons", "setting": "[1]; listed as Ketamine, hydrochloride", "result": "significantly more pronounced inhibitory effect"},
      {"measurement": "LTD induction", "setting": "[2]", "result": "could be blocked"},
      {"measurement": "paired-pulse ratio (PPR, EPSP2/EPSP1) before and after weak-aLTP (li-LTP) induction", "setting": "[2]", "result": "unchanged"},
      {"measurement": "EPSP amplitude after associative LTD protocol (aLTD, NMDAR-independent)", "setting": "[2]; hydrochloride", "result": "unaffected; also recorded: neither R,S-ketamine (10 μM) nor S-ketamine (5 μM) had an effect"},
      {"measurement": "LTD inducibility, non-associative 1 Hz LTD protocol (NMDAR-dependent)", "setting": "[2]; hydrochloride", "result": "fully blocked; also recorded: abolished"},
      {"measurement": "LTP inducibility, non-associative 100 Hz LTP protocol", "setting": "[2]; hydrochloride", "result": "significant blockade of inducibility of LTP"},
      {"measurement": "aLTP induction", "setting": "[2]; hydrochloride", "result": "neither K nor SK blocked aLTP induction; also recorded: not affected"},
      {"measurement": "low intensity LTP (IiLTP) induction", "setting": "[2]; hydrochloride", "result": "blocked LTP induction; also recorded: blockade of LTP induction"},
      {"measurement": "low intensity LTP (IiLTP), EPSP amplitude", "setting": "[2]; hydrochloride", "result": "significant increase in EPSP amplitude; also recorded: even enhanced LTP induction"},
      {"measurement": "LTP inducibility, associative LTP protocol (aLTP)", "setting": "[2]; unstressed mice, hydrochloride", "result": "significant blockade of inducibility of LTP"},
      {"measurement": "LTP inducibility, associative LTP protocol (aLTP)", "setting": "[2]; unstressed mice, listed as K, hydrochloride", "result": "complete inhibition of LTP"},
      {"measurement": "stress-induced facilitation of LTD (aLTD, EPSP amplitude min 25 to 30)", "setting": "[3]; CDM mice, R,S-ketamine injection i.p. after CDM induction, hydrochloride", "result": "fully restored; also recorded: reversed this inducibility"},
      {"measurement": "stress-induced blockade of LTP inducibility (aLTP, EPSP amplitude min 25 to 30)", "setting": "[3]; CDM mice, single R,S-ketamine injection i.p. after CDM induction, hydrochloride", "result": "fully restored; also recorded: completely reestablishing stress-induced changes"},
      {"measurement": "stress-induced aLTD facilitation", "setting": "[3]; [5]", "result": "weaker effect"},
      {"measurement": "stress-induced aLTP blockade", "setting": "[3]; [5]", "result": "prevented the stress-induced aLTP blockade"},
      {"measurement": "synaptic AP probability (conversion of EPSPs to APs) in FLAP", "setting": "[4]; hydrochloride", "result": "higher percentage of APs; also recorded: significant increase in synaptic AP probability"},
      {"measurement": "EPSP amplitude in the FLAP", "setting": "[4]; hydrochloride", "result": "dramatically increased"},
      {"measurement": "EPSP amplitude in the FLAP", "setting": "[4]; listed as ketamine, hydrochloride", "result": "increased significantly"}
    ]},
    {"molecule": "CCN(CC)C(=O)Oc1ccc(C(=O)Nc2cccc3cc[nH]c23)cc1", "note": "[NAB-14]", "values": [
      {"measurement": "amplitude of NMDAR currents in SOM interneurons", "setting": "[1]", "result": "significantly reduced; also recorded: reduce the amplitude of NMDAR currents in SOMs"},
      {"measurement": "EPSP amplitude after aLTD stimulation", "setting": "[2]; [6]", "result": "strongly increased the EPSP amplitude; also recorded: significant increase"},
      {"measurement": "basal EPSP-amplitude / synaptic transmission", "setting": "[2]; [6]", "result": "did not change synaptic transmission; also recorded: did not affect basal EPSP-amplitude"},
      {"measurement": "IiLTP induced increase of EPSP amplitude", "setting": "[2]; unstressed mice, NAB-14 in bathing solution, vs control IiLTP", "result": "increased IiLTP; also recorded: enhance IiLTP induced increase of EPSP amplitude significantly"},
      {"measurement": "stress-induced LTP blockade, reversal", "setting": "[3]; CDM mice, high dose: 10 mg/kg, 10 μM, 10 mg/kg", "result": "completely; also recorded: fully reversed"},
      {"measurement": "stress-induced LTP blockade, reversal", "setting": "[3]; CDM mice, high dose: 10 mg/kg, 10 μM, listed as NAB, 10 mg/kg", "result": "fully rehabilitated LTP inducibility"},
      {"measurement": "stress-induced LTP blockade, reversal", "setting": "[3]; CDM mice, low dose: 5 mg/kg, 5 μM", "result": "partially"},
      {"measurement": "EPSP slope and decay changes found in CDM", "setting": "[3]; CDM mice, previous NAB-14 treatment", "result": "effectively be reversed; also recorded: completely reversing slope increase and decay changes"},
      {"measurement": "synaptic AP probability (conversion of EPSPs to APs) in FLAP", "setting": "[4]", "result": "significant increase in synaptic AP probability"},
      {"measurement": "PC excitability: number of APs during the burst and input resistance (Rm)", "setting": "[4]; NAB-14 10 μM in FLAP", "result": "did not significantly change; also recorded: no significant alteration in AP number; also recorded: no significant change in postsynaptic input resistance"},
      {"measurement": "coefficient of variation (CV) analysis of EPSP slopes before and after wash-in", "setting": "[4]; NAB-14 wash-in in FLAP", "result": "consistent with a postsynaptic mechanism"},
      {"measurement": "EPSP amplitude in the FLAP", "setting": "[4]", "result": "significantly increased; also recorded: increased significantly"}
    ]}
  ]
}
